The values below are quoted from earlier work in patent US6653352B2, “Pain reliever and method of use” (Medical Merchandising, Inc., priority 1999, dated 2003).

For the data set the following is noted: in fats, oils and alcohols.

SMILES strings stand for the structures.

In the case of `COc1cc(CNC(=O)CCCC/C=C/C(C)C)ccc1O` [Capsaicin, N-Vanillyl-8-methyl-6-(E)-noneamide], the solubility entry is “very soluble in fats, oils and alcohols”.
